Key:
mTOR = mTOR (Homo sapiens, UniProt P42345); experiment: mTOR LanthaScreen (TR-FRET, phosphorylation of 4EBP1); assay type: biochemical; conditions: phosphorylation of GFP-4E-BP1, 10 μM ATP, 90 minutes
Summary of the method: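 Final reaction: 400 nM GFP-4E-BP1, 10 μM ATP, 0.15 μg/ml mTOR, compound 50 μM down to 23.84 pM (22-point 1:2 series) in 1% DMSO, buffer with 2 mM DTT; 90 min incubation.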

PI3Kα = target: T1, PI3Kα (Homo sapiens, UniProt P42336); experiment: In vitro PI3K AlphaScreen assay, PI3Kα; assay type: biochemical; conditions: PI(4,5)P2 substrate, 20 minutes at room temperature, read-out: P13Kalpha IC50 um
T1 construct: Full length p110 subunits of PI3K α, β and δ, N-terminally labeled with polyHis tag; polyHis (N); made in house; host or cells: Sf9 insect cells (baculovirus)
T1 sequence (P42336 whole entry): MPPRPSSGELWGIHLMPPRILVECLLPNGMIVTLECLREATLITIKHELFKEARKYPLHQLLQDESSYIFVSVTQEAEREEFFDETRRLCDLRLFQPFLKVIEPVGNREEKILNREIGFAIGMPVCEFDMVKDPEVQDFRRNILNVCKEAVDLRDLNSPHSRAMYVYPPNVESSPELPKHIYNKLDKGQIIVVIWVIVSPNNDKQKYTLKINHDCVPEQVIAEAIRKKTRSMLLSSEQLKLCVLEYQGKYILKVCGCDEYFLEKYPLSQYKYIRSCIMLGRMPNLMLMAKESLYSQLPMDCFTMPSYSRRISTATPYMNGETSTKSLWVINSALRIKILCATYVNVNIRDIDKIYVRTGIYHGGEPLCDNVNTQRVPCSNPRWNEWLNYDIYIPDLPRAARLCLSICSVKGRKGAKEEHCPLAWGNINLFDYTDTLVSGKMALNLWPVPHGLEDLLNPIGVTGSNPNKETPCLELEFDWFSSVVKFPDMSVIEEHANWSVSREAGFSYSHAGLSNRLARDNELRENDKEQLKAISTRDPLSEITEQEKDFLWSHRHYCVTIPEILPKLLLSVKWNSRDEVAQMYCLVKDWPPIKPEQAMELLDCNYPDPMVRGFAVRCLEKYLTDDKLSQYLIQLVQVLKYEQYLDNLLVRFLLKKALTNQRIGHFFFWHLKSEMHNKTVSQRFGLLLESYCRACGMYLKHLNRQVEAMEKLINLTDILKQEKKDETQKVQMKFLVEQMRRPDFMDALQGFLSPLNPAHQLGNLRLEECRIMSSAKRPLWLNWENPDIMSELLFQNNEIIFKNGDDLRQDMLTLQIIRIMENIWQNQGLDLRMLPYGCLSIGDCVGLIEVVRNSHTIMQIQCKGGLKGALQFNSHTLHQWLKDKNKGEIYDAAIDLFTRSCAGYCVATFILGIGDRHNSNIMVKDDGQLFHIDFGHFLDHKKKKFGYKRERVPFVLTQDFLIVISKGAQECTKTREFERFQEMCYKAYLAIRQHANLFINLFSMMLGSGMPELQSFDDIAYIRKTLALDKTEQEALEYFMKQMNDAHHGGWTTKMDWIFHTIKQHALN
T1 sequence (P27986 whole entry partner): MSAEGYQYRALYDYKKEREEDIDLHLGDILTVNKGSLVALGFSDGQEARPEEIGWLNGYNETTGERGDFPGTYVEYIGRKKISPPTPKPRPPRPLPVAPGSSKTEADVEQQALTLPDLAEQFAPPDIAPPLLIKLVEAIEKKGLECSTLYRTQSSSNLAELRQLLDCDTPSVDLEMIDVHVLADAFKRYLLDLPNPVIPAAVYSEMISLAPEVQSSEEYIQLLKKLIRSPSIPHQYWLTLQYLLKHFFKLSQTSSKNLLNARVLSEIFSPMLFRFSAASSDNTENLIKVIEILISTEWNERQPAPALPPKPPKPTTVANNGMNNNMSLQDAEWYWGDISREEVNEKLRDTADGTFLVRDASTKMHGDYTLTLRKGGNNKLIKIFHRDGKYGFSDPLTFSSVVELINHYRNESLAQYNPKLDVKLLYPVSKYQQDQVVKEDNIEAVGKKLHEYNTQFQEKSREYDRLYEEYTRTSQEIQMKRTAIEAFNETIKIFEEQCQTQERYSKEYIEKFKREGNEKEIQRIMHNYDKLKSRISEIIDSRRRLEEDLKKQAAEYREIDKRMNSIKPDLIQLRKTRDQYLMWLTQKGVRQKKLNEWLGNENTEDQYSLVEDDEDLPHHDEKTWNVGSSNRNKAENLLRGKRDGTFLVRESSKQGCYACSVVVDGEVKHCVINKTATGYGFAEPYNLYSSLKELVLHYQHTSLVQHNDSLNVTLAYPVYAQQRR
Summary of the method: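 PI3Kα at 1.6 nM (2× stock) with PI(4,5)P2 10 μM and ATP 20 μM (2× stocks) in Tris pH 7, MgCl2, cholate, NaCl, DTT; 20 min at room temperature. Quenched with biotin-IP4/streptavidin-Donor beads, then GST-PIP3-binding protein/anti-GST Acceptor beads, 1.5 h dark; PIP3 formation read as loss of AlphaScreen signal.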

Compound	IC50 (mTOR) [nM]	IC50 (PI3Kα) [nM]
Cc1nc(N)nc(-c2c(Nc3cc[nH]n3)nc3cc(C4=CCN(C(=O)OC(C)(C)C)CC4)ccn23)n1 [Cpd 183, tert-butyl 4-(3-(4-amino-6-methyl-1,3,5-triazin-2-yl)-2-(1H-pyrazol-3-ylamino)imidazo[1,2-a]pyridin-7-yl)-3,6-dihydro-1(2H)-pyridinecarboxylate]	460	50
COCCOc1ccn2c(-c3nc(C)nc(N)n3)c(Nc3cc[nH]n3)nc2c1 [Cpd 185, 3-(4-amino-6-methyl-1,3,5-triazin-2-yl)-7-(2-methoxyethoxy)-N-1H-pyrazol-3-ylimidazo[1,2-a]pyridin-2-amine]	40	700
Cc1nc(N)nc(-c2c(Nc3cc[nH]n3)nc3cc(OCCN4CCCC4)ccn23)n1 [Cpd 188]	360	7010
Cc1nc(N)nc(-c2c(Nc3ccn(C(=O)Nc4ccccc4)n3)nc3ccccn23)n1 [Cpd 204, 3-((3-(4-amino-6-methyl-1,3,5-triazin-2-yl)imidazo[1,2-a]pyridin-2-yl)amino)-N-phenyl-1H-pyrazole-1-carboxamide]	90	3000
Cc1nc(N)nc(-c2c(Nc3cnn(C(=O)Oc4ccccc4)c3)nc3ccccn23)n1 [Cpd 209, phenyl 4-((3-(4-amino-6-methyl-1,3,5-triazin-2-yl)imidazo[1,2-a]pyridin-2-yl)amino)-1H-pyrazole-1-carboxylate]	300	830
Cc1nc(N)cc(-c2c(Nc3ccn(-c4ccccn4)n3)nc3ccccn23)n1 [Cpd 216, 3-(6-amino-2-methyl-4-pyrimidinyl)-N-(1-(2-pyridinyl)-1H-pyrazol-3-yl)imidazo[1,2-a]pyridin-2-amine]	860	1370
Cc1nc(N)cc(-c2c(Nc3ccn(C(=O)NCc4ccccc4)n3)nc3ccccn23)n1 [Cpd 222, 3-((3-(6-amino-2-methyl-4-pyrimidinyl)imidazo[1,2-a]pyridin-2-yl)amino)-N-benzyl-1H-pyrazole-1-carboxamide]	5880	1200
Cc1nc(N)cc(-c2c(Nc3ccn(C(=O)Nc4ccccc4C(F)(F)F)n3)nc3cccnn23)n1 [Cpd 239, 3-((3-(6-amino-2-methyl-4-pyrimidinyl)imidazo[1,2-b]pyridazin-2-yl)amino)-N-(2-(trifluoromethyl)phenyl)-1H-pyrazole-1-carboxamide]	8	3010
Cc1nc(N)cc(-c2c(Nc3ccn(C(=O)Nc4cc(F)cc(F)c4)n3)nc3cccnn23)n1 [Cpd 242, 3-((3-(6-amino-2-methyl-4-pyrimidinyl)imidazo[1,2-b]pyridazin-2-yl)amino)-N-(3,5-difluorophenyl)-1H-pyrazole-1-carboxamide]	80	2320
Cc1nc(N)cc(-c2c(Nc3ccnn3C(=O)N3CCC3)nc3cccnn23)n1 [Cpd 257, 3-(6-amino-2-methyl-4-pyrimidinyl)-N-(1-(1-azetidinylcarbonyl)-1H-pyrazol-5-yl)imidazo[1,2-b]pyridazin-2-amine]	1690	46500
COc1ccc(-c2ccc3nc(Nc4ccn[nH]4)c(-c4nc(C)nc(N)n4)n3c2)cc1CO [Cpd 286]	120	130
Cc1nc(N)nc(-c2c(Nc3ccn[nH]3)nc3ccc(CCC(O)CO)cn23)n1 (stereo not drawn) [Cpd 291, 4-(3-(4-amino-6-methyl-1,3,5-triazin-2-yl)-2-(1H-pyrazol-5-ylamino)-midazo[1,2-a]pyridin-6-yl)-1,2-butanediol]	1210	170
Cc1nc(N)nc(-c2c(Nc3cc[nH]n3)nc3ccc(-c4ccc(S(C)(=O)=O)cc4)cn23)n1 [Cpd 344, 3-(4-amino-6-methyl-1,3,5-triazin-2-yl)-6-(4-(methylsulfonyl)phenyl)-N-1H-pyrazol-3-ylimidazo[1,2-a]pyridin-2-amine]	80	70
CNS(=O)(=O)c1ccc(-c2ccc3nc(Nc4cc[nH]n4)c(-c4nc(C)nc(N)n4)n3c2)cc1 [Cpd 351, 4-(3-(4-amino-6-methyl-1,3,5-triazin-2-yl)-2-(1H-pyrazol-3-ylamino)imidazo[1,2-a]pyridin-6-yl)-N-methylbenzenesulfonamide]	230	480
Cc1nc(N)nc(-c2c(Nc3ccn(C)n3)nc3ccc(-c4ccc(S(C)(=O)=O)cc4)cn23)n1 [Cpd 354]	320	770

Source: patent publication US20120190666A1, “Heteroaryl Compounds as PIKK Inhibitors” (Amgen Inc., priority 2009, published 2012)
